Data taken from US5691311A (Biogen, Inc., priority 1995, dated 1997).
Where two headings read alike, the source gives them in different places.

Legend:
[1] = system: E. coli-induced septic shock; assay: E. coli-induced septicemia / disseminated intravascular coagulation; assay type: in vivo, baboon; conditions: 0.08 mg/kg/hr infusion
Text: We induced septicemia in baboons by injection of a lethal dose of live E. coli according to the method described by F. B. Taylor et al. J. Clin. Invest., 79, pp. 918-25 (1987).

sarcoma T241 cells = assay: Anti-metastatic activity, lung tumor colonies; assay type: in vivo, C57BL/6 mice; conditions: i.v. or s.c., 15 days
Text: After 15 days, the animal is sacrificed and lung tumor colonies are quantitated.

[2] = Clearance times monitored by APTT; assay type: in vivo, baboon
Method: APTT assays, performed as described in Example 11, were used to monitor clearance times.
APTT was measured following the 60 minute infusion and at various time intervals thereafter.
APTT measurements were taken at various time intervals following injection.

[3] = system: human umbilical vein endothelial cells (HUVECs); assay: Thrombin-induced synthesis of platelet activating factor (PAF); assay type: cell-based; conditions: 0-1 μg/ml, thrombin 1 U/ml
Method: The ability of the thrombin inhibitors of this invention to prevent thrombin-induced synthesis of platelet activating factor (PAF) is assayed using cultured human umbilical vein endothelial cells (HUVECs). HUVECS are extracted from human umbilical cords by collagenase digestion according to established procedures [M. A. Gimborne, Jr., "Culture of Vascular Endothelium", Prog. Hemost. Thromb., 3, pp. 1-28 (1976)]. HUVECs are grown to confluence in a 96-well microtiter plate in the presence of [^3 H]-acetate. Cells cultured in this manner produce [^3 H]-acetyl-PAF, which may be quantitated by extraction of HUVEC membrane phospholipids.
Cells are incubated for 5 minutes and the supernatant is then removed. Medium containing 0.1% gelatin, 50 mM acetic acid in methanol (2:1 v/v) is then added to the HUVECs. PAF is then extracted and quantified using conventional techniques [T. M. Mcintyre et al., "Cultured Endothelial Cells Synthesize Both Platelet-Activating Factor and Prostacyclin in Response to Histamine, Bradykinin and Adenosine Triphosphate", J. Clin. Invest., 76, pp. 271-80 (1985)]. The IC50 values are then calculated.

fibrin(ogen) deposition = assay: Fibrin(ogen) deposition in AV shunt thrombi; assay type: in vivo, baboon; conditions: collagen-coated tubing, 60 minute exposure
Method: Fibrin deposition was determined by measurement of ^125 I-fibrin(ogen) 30 days after completion of the ^111 In-platelet assay described above. This allowed the ^111 In label to decay to a non-interfering level.

hemostasis = assay: Template bleeding time; assay type: in vivo, baboon
APTT [4] = assay: In vivo anticoagulant activity, APTT after intravenous infusion; parameters: species or system baboon
Method: Whole blood from treated and control animals was removed from a catheter placed in the femoral vein and collected into 3.8% sodium citrate (9:1; blood:sodium citrate). Plasma was obtained by standard methods and the APTT was recorded by methods described in Example 10.

[5] = system: platelet-dependent thrombus formation; assay: High and low shear platelet-dependent thrombus formation, dual-chamber device; assay type: in vivo, baboon; conditions: 0.05 mg/kg/min, 40 minutes
Text: The device was comprised of a 2 cm segment of collagen-coated Gortex followed by 2 cm segments of expanded diameter. Using this device, thrombus formation was initiated by exposure of native flowing blood to a segment of the collagen-coated Gortex at high shear. This part of the experimental protocol simulated arterial-like conditions. When the blood entered the expanded diameter segments, low-shear, vortex conditions were maintained, thereby simulating venous thrombosis. In control animals, a total of 9.3±2.3×10^8 and 6.1±0.5×10^8 platelets/cm accumulated after 40 minutes in the high and low shear segments, respectively.

[6] = system: thrombin-induced platelet activation; assay: Thrombin-induced platelet activation in platelet-rich plasma; assay type: cell-based, human; conditions: 0-500 ng/ml, thrombin 0.2, 0.25 or 0.5 units/ml
Method: Thrombin-induced platelet activation studies are performed at 37° C. using a Biodata PAP4 Platelet Aggregometer. Platelet-rich plasma (PRP) is obtained from normal, healthy, volunteers who have not taken any medication altering platelet function for at least one week prior to study. PRP is prepared as described by J. A. Jakubowski et al., "Modification of Human Platelet by a Diet Enriched in Saturated or Polyunsaturated Fat", Atherosclerosis, 31, pp. 335-44 (1978). […] One minute later, we add human α-thrombin to the platelet suspension to a final concentration of 0.2, 0.25 or 0.5 units/ml total assay volume. Aggregation is monitored as an increase in light transmission for 5 minutes following the addition of thrombin. We then calculate % Inhibition as (% aggregationsample)/(% aggregationcontrol)×100.

APTT [7] = assay: Systemic anticoagulant effect (APTT) of antithrombotic agents; assay type: in vivo, baboon; conditions: dose not given
Text: We also tested the effects of a variety of other agents on template bleeding time in the baboon, as well as on systemic anticoagulant effects (as measured by APTT).

[8] = system: platelet-dependent thrombosis; assay: Platelet deposition on thrombogenic surfaces in exteriorized AV shunt; assay type: in vivo, baboon
Method: Specifically, we placed various thrombogenic surfaces in a chronic exteriorized AV shunt in the animals. These surfaces included segments of endarterectomized baboon aorta, collagen-coated silastic tubing, collagen-coated Gortex and Dacron vascular graft. Following placement in the shunt, the surfaces were exposed to native flowing blood to elicit thrombus formation. We measured the formation of thrombi over a period of 60 minutes by monitoring the deposition of platelets on the thrombogenic surface. These measurements were recorded by external gamma-camera imaging following pre-infusion of the test animal with autologous ^111 In-labeled platelets.

HUVECs = assay: Thrombin-induced polymorphonuclear leukocyte (PMN) adhesion to HUVECs; assay type: cell-based, human; conditions: 5 μg/ml, α-thrombin 0.1 or 1 U/ml
Method: HUVECs are grown to confluence in MEM containing 1% fetal calf serum in 24-well cluster plates. The medium is then removed, the cells are washed two times with fresh, serum-free medium and incubated in the same medium for 10-30 minutes at 37° C. to remove serum products. PMNs (2.5×10^6 in 1 ml), which are pre-equilibrated at 37° C., are then added to each well. The PMNs are allowed to settle onto the HUVEC monolayer for 2 minutes. […] The cells are incubated for 5 minutes at 37° C., washed twice and then examined by phase-contrast microscopy. Adherent PMNs are counted directly.

[9] = system: pooled, normal human plasma; assay: Activated partial thromboplastin time (APTT) assay in plasma; assay type: biochemical; conditions: 10 to 32,300 ng/ml
Text: Hirulog-8 using pooled, normal human plasma (George King Biomedical, Overland Park, Kans.) and a Coag-A-Mate XC instrument (General Diagnostics, Organon Technica, Oklahoma City, Okla.). Activity was monitored using the activated partial thromboplastin time (APTT) assay with CaCl2 and phospholipid solutions obtained from the manufacturer.

soluble thrombin = target: T1, soluble thrombin (Homo sapiens, UniProt P00734); assay: Fibrinopeptide A (FPA) release by soluble thrombin; assay type: biochemical; conditions: 0.1 U/ml
T1 construct: We added a 270-fold excess of ^14 C-DFP to thrombin

[10] = system: platelet-dependent thrombosis; conditions: collagen-coated silastic tubing, 160 U/kg bolus then 160 U/kg/hr infusion; cited from earlier work
clot-bound thrombin = clot-bound thrombin (Homo sapiens, UniProt P00734); assay: Fibrinopeptide A (FPA) release by clot-bound thrombin; assay type: biochemical; conditions: similar dose (0.1 U/ml)
thrombin = thrombin (Homo sapiens, UniProt P00734); conditions: cited from earlier work

CC[C@H](C)[C@H](NC(=O)[C@H](CCC(=O)O)NC(=O)[C@H](CCC(=O)O)NC(=O)[C@H](Cc1ccccc1)NC(=O)[C@H](CC(=O)O)NC(=O)CNC(=O)[C@H](CC(N)=O)NC(=O)CNC(=O)CNC(=O)CNC(=O)CNC(=O)[C@@H]1CCCN1C(=O)[C@H](CCCNC(=N)N)NC(=O)[C@@H]1CCCN1C(=O)[C@H](N)Cc1ccccc1)C(=O)N1CCC[C@H]1C(=O)N[C@@H](CCC(=O)O)C(=O)N[C@@H](CCC(=O)O)C(=O)N[C@@H](Cc1ccc(O)cc1)C(=O)N[C@@H](CC(C)C)C(=O)O [Hirulog-8]
hematocrit drop [1]: completely attenuated hematocrit drop
intravascular thrombosis at autopsy [1]: only the control group displayed intravascular thrombosis
morbidity after lethal infusion of E. coli [1]: still resulted in morbidity
peak drop in blood pressure [1]: 60 % of baseline
anti-metastatic activity (reduction in lung tumor colonies) (sarcoma T241 cells): demonstrates anti-metastatic activity
half-life ([2]; 1 mg/kg i.v. bolus): 14 min
peak APTT ([2]; 1 mg/kg i.v. bolus, 2 minutes after injection): 570 % of control
absorption after subcutaneous administration ([2]; 1 mg/kg subcutaneous): quantitatively adsorbed
clearance half-time ([2]; 1 mg/kg subcutaneous): 340 min
APTT ([2]; 1 mg/kg subcutaneous, 15 minutes): approximately 200 % of control
average half-time for clearance ([2]; after 60 minute i.v. infusion, 0.002-0.2 mg/kg/min): 9.2 ± 3.3 min
synthesis of PAF by HUVECs [3]: inhibits the synthesis of PAF
fibrin(ogen) deposition (fibrin(ogen) deposition; 0.01 mg/kg/min): completely inhibited fibrin(ogen) deposition
fibrin(ogen) deposition (fibrin(ogen) deposition; 0.04 mg/kg/min): completely inhibited fibrin(ogen) deposition
increase in bleeding time over control values (hemostasis; 0.1 mg/kg/min): two-fold
bleeding times (hemostasis; 0.2 mg/kg/min): 3 times control values
bleeding times (hemostasis; 0.002 to 0.04 mg/kg/min): no significant increase in bleeding times
Bleeding Time (hemostasis; dose not given): 5.5 min
increase in the APTT (APTT [4]; 0.002 mg/kg/min infusion): 200 % increase
APTT response to dose (APTT [4]; 0.002 to 0.2 mg/kg/min i.v.): dose-dependent increase in the APTT
inhibition of platelet accumulation ([5]; high shear): 29.0%
inhibition of platelet accumulation ([5]; low shear): 42.6%
thrombin-induced platelet activation [6]: blocks thrombin-induced platelet activation
APTT (% control) (APTT [7]): 300.6 % control
ED50 ([8]; collagen-coated Gortex): 0.135 mg/kg/min
inhibition of platelet deposition ([8]; collagen-coated Gortex, 0.2 mg/kg/min): 62.9%
ED50 ([8]; collagen-coated silastic tubing): 0.004 mg/kg/min
inhibition of platelet-dependent thrombus formation compared to control ([8]; collagen-coated silastic tubing, 5 nmole/kg/min): 60-70%
inhibition of platelet deposition ([8]; collagen-coated silastic tubing, 0.04 mg/kg/min): completely inhibited platelet deposition
ED50 ([8]; collagen-coated surfaces, applicants' determinations): < 5 nmol/kg/min
ED50 (dosage required to reduce platelet deposition by 50%) ([8]; endarterectomized baboon aorta): 0.002 mg/kg/min
inhibition of platelet deposition ([8]; endarterectomized baboon aorta, 0.002 mg/kg/min, 60 minutes): 53.6%
inhibition of platelet deposition ([8]; endarterectomized baboon aorta, 0.01 mg/kg/min, 60 minutes): 75.5%
adherent PMNs versus saline (HUVECs): significantly fewer adherent PMNs
maximal increase of APTT of plasma [9]: too high to be measured

Heparin
Bleeding Time (hemostasis; in vivo): 10 min
inhibition of FPA release catalyzed by soluble thrombin (soluble thrombin): approximately 70%
APTT (% control) (APTT [7]): 706.1 % control
platelet deposition level relative to saline-treated control [10]: about 80%
effect on FPA release catalyzed by clot-bound thrombin (clot-bound thrombin): no effect

hirudin
Kd (thrombin; 1:1 stoichiometric complex, read-out: Kd of hirudin binding to thrombin): 0.02 nM
Kd (thrombin; site separate from the catalytic site (anion-binding exosite), read-out: Kd of hirudin for the low affinity site on thrombin): 10 nM
maximal increase of APTT of plasma [9]: too high to be measured
